# Source: PMC7036544, “Persistent candida arthritis successfully treated with micafungin instillation and surgery. A case report” (Medical Mycology Case Reports, 2019)
# Starred links: 1 amine or outer side, 2 acyl side, 3 side chain; linkers in the order of their positions; H or OH if unused. Positions of bridges follow the written chain, without caps; N, C: chain ends. Non-standard residues stand in square brackets, D forms with d. Residues, ends and D or L forms follow the SMILES beside them. *: point of attachment. hTyr(3S-OH,4S-OH,3'-OSO3H) = N[C@H](C(=O)O)[C@H](O)[C@@H](O)c1ccc(O)c(OS(=O)(=O)O)c1; Orn(4R-OH,5R-OH) = O=C([C@H](C[C@@H](O)[C@@H](O)N[*:3])N[*:1])[*:2]; Pro(3S-OH,4S-Me) = C[C@H]1CN[C@H](C(=O)O)[C@H]1O; X1 = CCCCCOc1ccc(-c2cc(-c3ccc(C(=O)*)cc3)no2)cc1; Gln(3R-OH) = NC(=O)C[C@@H](O)[C@H](N)C(=O)O; Hyp = O=C(O)[C@@H]1C[C@@H](O)CN1
# How the values were obtained:
# [1] = Micafungin concentration in serum of the patient; format: in vivo, human; conditions: one patient, single measurement
# Method: C. krusei has been identified with the use of CHROMagar™ with subsequent identification by Maldi-TOF, with database MALDI BDAL Database version 8.0. Micafungin concentrations were measured (laboratory of pharmacy, University Hospital Nijmegen, the Netherlands) in serum and joint fluid. The concentrations in […] and concentration in synovial fluid 24 hours after installation of 3mg of micafungin in the knee was 11mg/L at day 19, as well presented in Table 1. Reference concentrations of micafungin in serum derived from 2 studies in critically ill patients trough level 1.4–3.1 mg/L were described. […] Administration of 100mg once daily results in trough serum concentration levels of 2 mg-L [14]. In hematology patients reference concentrations after intravenous micafungin are available as well [15].
# [2] = Micafungin concentration in joint (synovial) fluid of the patient after intra-articular instillation; format: in vivo, human; conditions: one patient; day 19; joint fluid aspirated 24 hours after intra-articular instillation of 3mg micafungin (trough); IA 3mg OD day 17 – day 24; single measurement
# Method: C. krusei has been identified with the use of CHROMagar™ with subsequent identification by Maldi-TOF, with database MALDI BDAL Database version 8.0. Micafungin concentrations were measured (laboratory of pharmacy, University Hospital Nijmegen, the Netherlands) in serum and joint fluid. The concentrations in serum 12 hours after the administration of 100mg intravenously at day 13 and 16 of therapy were 4.5 and 1.5mg/L respectively and concentration in synovial fluid 24 hours after installation of 3mg of micafungin in the knee was 11mg/L at day 19, as well presented in Table 1. Reference concentrations of micafungin in serum derived from 2 studies in critically ill patients trough level 1.4–3.1 mg/L were described. […] Administration of 100mg once daily results in trough serum concentration levels of 2 mg-L [14]. In hematology patients reference concentrations after intravenous micafungin are available as well [15].
# C. krusei = test: MIC of micafungin for the patient's C. krusei; format: cell-based, Candida krusei; conditions: isolate of the patient
# [3] = Local toxicity in the knee joint after intra-articular micafungin; format: in vivo, human; conditions: one patient; intra-articular instillation, local concentration 11mg/l
# C. krusei knee arthritis = test: Clinical outcome of C. krusei knee arthritis; format: in vivo, human; conditions: one patient; instillation of micafungin in the knee plus intravenous micafungin and arthroscopic debridement
# From the text: A week later, the patient was readmitted for a second course of chemotherapy and amphotericin-B oral solution was given to prevent a new episode of translocation of C. krusei. During this hospital stay they hit their left knee on the side of the bed. Their knee continued to be painful and as a knee effusion was noted three days after injury, the orthopedic surgeon was consulted. On physical examination a large effusion of their left knee was found. The joint was not visibly red, but was warm on palpation. Their temperature was 38.4° Celsius. A plain knee radiograph of the knee was normal. An aspiration of the affected knee was performed and the joint fluid was sent for culture, this day was considered as day 0. Day 1 the joint aspiration grew C. krusei for which intravenous micafungin was restarted at a dose of 100mg twice daily. As the patient was deeply thrombopenic as well as neutropenic at that time, no arthroscopic drainage and lavage was performed but instead the knee was repeatedly drained by needle aspiration. On the day of the first needle aspiration of the knee and for the next 10 days, blood cultures were positive for C. krusei as well. Furthermore, repeated needle aspirations of the knee continued to grow C. krusei. An echocardiography at day 6 was normal. […]
# [4] = critically ill patients, 2 studies; cited from earlier work
# [5] = healthy subjects; cited from earlier work
# [6] = reconstitution in NaCl 0.9%; cited from earlier work
# From the text: Synovial fluid is a transudate of plasma, so dissolution of micafungin in synovial fluid will be likely. Moreover, diffusion from plasma to the synovial fluid will occur. Unfortunately, data about the extent of diffusion from plasma to the synovial fluid are not available. The possible side effects as well as the possible toxic effects on cartilage of micafungin when administered directly into a joint are unknown. However, we decided to administer micafungin through direct intra-articular instillation as, despite prolonged high-dose intravenous micafungin therapy, blood as well as synovial cul ...
compound,measurement,setting,value
"CCCCCOc1ccc(-c2cc(-c3ccc(C(=O)N[C@H]4C[C@@H](O)[C@@H](O)NC(=O)[C@@H]5[C@@H](O)[C@@H](C)CN5C(=O)[C@H]([C@H](O)CC(N)=O)NC(=O)[C@H]([C@H](O)[C@@H](O)c5ccc(O)c(OS(=O)(=O)O)c5)NC(=O)[C@@H]5C[C@@H](O)CN5C(=O)[C@H]([C@@H](C)O)NC4=O)cc3)no2)cc1 [micafungin] (X1-[Orn(4R-OH,5R-OH)]T[Hyp][hTyr(3S-OH,4S-OH,3'-OSO3H)][Gln(3R-OH)][Pro(3S-OH,4S-Me)]; lactam 1-C)",Micafungin concentration in serum,"[1]; 12 hours after administration of 100mg intravenously, day 16 of therapy",1.5 mg/L
same,Micafungin concentration (trough serum),"[1]; day 14, IV 100mg BID day 1 – day 15",4.5 mg/L
same,Micafungin concentration (trough serum),"[1]; day 17 (day of surgery), IV 200mg OD day 16 – day 32",1.5 mg/L
same,Micafungin concentration in synovial fluid (joint),[2],11 mg/L
same,MIC of the C. krusei,C. krusei,0.125 µg/mL
same,Local toxicity of the joint,[3],no local toxicity was observed
same,Clinical outcome,C. krusei knee arthritis,completely recovered
same,"Reference concentration of micafungin in serum, trough level",[4],1.4 to 3.1 mg/L
same,Half-life,[5],15 h
same,Volume of distribution,[5],"0,2 L/kg"
same,pH after reconstitution,[6],5–7
